Assay results published in patent publication US20250034200A1, “Prodrugs of Neurosteroid Analogs and Uses Thereof” (priority 2021, published 2025).
Counter-ions that a name gives are not always drawn.

Assays:
[1] = Aqueous stability assay (HPLC, pseudo first-order half-life); assay type: physicochemical; details: for stability in the acidic aqueous mediums: pH 4.0 and 5.5
[2] = Plasma stability assay (LC-MS/MS); assay type: in vitro ADME; details: for formation of the corresponding oxime (progesterone C20-oxime) / half-life: human plasma; for half-life: 37° C., 3 μM, read-out: Plasma t1/2 (converted)
Method in brief: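 Compound (3 μM final; 0.03% DMSO, up to 0.6% methanol) was incubated in human plasma at 37° C for up to 240 min, sampled at 0, 15, 30, 60, 120, 180 and 240 min in duplicate. Samples were quenched in cold acetonitrile or methanol with internal standard and quantified by LC-MS/MS (ESI+, MRM). Stability was derived from the slope of ln(% parent remaining) versus time.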

[3] = Nephelometry (aqueous solubility); assay type: physicochemical; details: DPBS with 1% DMSO, aqueous buffer, kinetic from dmso stock, DPBS pH 7.0-7.3, 1% DMSO, 25° C.
Source text: Well A1 of the plate contained 100% DMSO.

[4] = test system: rat disease model of acute TBI; assay: Edema assay in rat model of acute TBI (controlled cortical impact); assay type: in vivo; details: for reduced brain edema: 10 mg/kg IM at 1 and 6 h post-TBI, edema at 24 h
Method: A prodrug dose of 10 mg/kg was chosen and administered IM at 1 and 6 hours post-injury. Prodrug dosage is equimolar±5% with respective to the parent compound.
Subjects—Male SD rats weighing 250-350 g at the time of injury were used for the efficacy study, which was conducted in our facility at Emory University. The rats were maintained on a reverse 12:12 light-dark cycle at 22±1° C. with appropriate humidity levels. After one week of quarantine the rats were handled at least 3 times prior to surgery. This study was conducted in a facility approved by the American Association for the Accreditation of Laboratory Animal Care (AAALAC) in accordance with all National Institutes of Health guidelines. All experimental animal procedures were approved by the Emory University Institutional Animal Care and Use Committee.
Contusion Injury—Rats were anesthetized using isoflurane gas (5% induction, 1.5% maintenance, 700 mmHg N2O, 500 mmHg O2) and then mounted in a Kopf stereotaxic device (David Kopf Instruments, Tujunga, CA, USA). The scalp incision area was shaved and sterilized with Betadine® antiseptic and 70% isopropanol. Physiological parameters were monitored with pulse oximetry (SurgiVet model V3304): heart rate was maintained above ˜300 beats per minute and SpO2 kept above 90%. Core body temperature (˜37° C.) was maintained with a homeothermic heating blanket system (Harvard Apparatus, Holliston, MA, USA). Under aseptic conditions, a midline incision was made into the skin and fascia covering the skull. Cotton swabs were used to staunch and clean any fascial bleeding. […]
Treatment—Animals were randomly assigned to one of four treatment groups. […] Percent change in brain tissue water content was measured.
Edema Assay—Edema was measured at 24 h after surgery. […] The percent water content was calculated by [(wet wt-dry wt)/wet wt]×100. The percent difference in water content between the anterior peri-contusional and the posterior distal section was calculated for each sample by: [(anterior H2O %-posterior H2O %)/(posterior H2O %)]×100.

[5] = Rat plasma pharmacokinetic study; details: IV and IM routes
Method: Test System—Healthy male Sprague Dawley rats (8-12 weeks old) weighing between 200 to 250 g were procured from Global, India. […] Temperature and humidity were maintained at 22±3° C. and 30-70%, respectively and illumination was controlled to give a sequence of 12 h light and 12 h dark cycle. Temperature and humidity were recorded by auto-controlled data logger system. All the animals were provided with laboratory rodent diet (Envigo Research private Ltd, Hyderabad). Reverse osmosis water treated with ultraviolet light was provided ad libitum.
Design—Rats (n=3 per treatment group, serial sampling) were administered a solution of either normal saline vehicle or test compound in normal saline at 2 mg/kg (IV) or 10 mg/kg (IM) with a dosing volume of 5 mL/kg (IV) or 1 mL/kg (IM).
Sample Collection—Blood samples (approximately 60 μL) were collected under light isoflurane anesthesia (Surgivet®) from retro orbital plexus from a set of three rats at 0.08, 0.25, 0.5, 1, 2, 4, 6, 8 and 10 h (IV) or 0.25, 0.5, 1, 2, 4, 6, 8 and 10 h (IM). Immediately after blood collection, plasma was harvested by centrifugation 4000 rpm, 10 min at 40° C. and samples were stored at −70±10° C. until bioanalysis.
Data Analysis—Concentrations of the test compound and its parent compound, progesterone C20-oxime, in rat plasma were determined by fit-for-purpose LC-MS/MS method by Sai Life Sciences. […] Cmax represents the mean observed maximum concentration of analyte. Tmax represents the average time at observed Cmax. Areas under the curve (AUC0-last) were calculated via the linear trapezoidal rule using GraphPad Prism v9.

[6] = acetate buffer pH 4.0, read-out: Acetate buffer (pH 4.0) t1/2 (converted)
[7] = acetate buffer pH 5.5, read-out: Acetate buffer (pH 5.5) t1/2 (converted)

CNCCN(C)C(=O)O/N=C(\C)[C@H]1CC[C@H]2[C@@H]3CCC4=CC(=O)CC[C@]4(C)[C@H]3CC[C@]12C [32b, (E)-9-((8S,9S,10R,13S,14S,17S)-10,13-dimethyl-3-oxo-2,3,6,7,8,9,10,11,12,13,14,15,16,17-tetradecahydro-1H-cyclopenta[a]phenanthren-17-yl)-5-methyl-7-oxa-2,5,8-triazadec-8-en-6-one hydrochloride]
PBS t1/2 ([1]; DPBS pH 7.0-7.3, 1 mg/mL, room temperature): 46.9 ± 0.8 h
half-life [1, 6]: 96 days
half-life [1, 7]: 80 days
stability in the acidic aqueous mediums [1]: stable
stability in human plasma [2]: unstable
formation of the corresponding oxime (progesterone C20-oxime) [2]: observed
half-life [2]: 90 min
solubility at 90 min [3]: > 750 µM
reduced brain edema [4]: 31%

C/C(=N\OC(=O)N(C)C[C@@H]1CCCN1)[C@H]1CCC2[C@@H]3CCC4=CC(=O)CC[C@]4(C)[C@H]3CC[C@@]21C.Cl (stereo partly drawn) [32j, (8S,9S,10R,13S,17S)-10,13-dimethyl-17-((E)-1-(((methyl(((S)-pyrrolidin-2-yl)methyl)carbamoyl)oxy)imino)ethyl)-1,2,6,7,8,9,10,11,12,13,14,15,16,17-tetradecahydro-3H-cyclopenta[a]phenanthren-3-one hydrochloride]
half-life [1, 6]: 48 days
half-life [1, 7]: 2.4 days
half-life ([1]; buffer, DPBS pH 7.0-7.3, 1 mg/mL, room temperature, read-out: PBS t1/2 (converted)): 0.0792 ± 0.00417 days
stability in the acidic aqueous mediums [1]: stable
stability in human plasma [2]: unstable
formation of the corresponding oxime (progesterone C20-oxime) [2]: observed
half-life [2]: < 6 min
reduced brain edema [4]: 40%
reducing brain edema, comparison with EIDD-1723 ([4]; 10 mg/kg dose IM): equally efficacious
formation of parent progesterone C20-oxime [5]: rapid and extensive
